The source made the active and inactive calls.
Tests used:
Cytochrome P450 2C19 = Cytochrome P450 2C19 (Homo sapiens, UniProt P33261); assay: Cytochrome panel assay with activity outcomes. Panel member name: p450-cyp2c19 Compounds with AC50 equal or less than 10 uM are considered active; format: functional
Cytochrome P450 1A2 = molecular target: T1, Cytochrome P450 1A2 (Homo sapiens, UniProt P05177);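 note: PubChem cytochrome P450 panel assay, CYP1A2 panel member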
T1 sequence (P05177 whole entry): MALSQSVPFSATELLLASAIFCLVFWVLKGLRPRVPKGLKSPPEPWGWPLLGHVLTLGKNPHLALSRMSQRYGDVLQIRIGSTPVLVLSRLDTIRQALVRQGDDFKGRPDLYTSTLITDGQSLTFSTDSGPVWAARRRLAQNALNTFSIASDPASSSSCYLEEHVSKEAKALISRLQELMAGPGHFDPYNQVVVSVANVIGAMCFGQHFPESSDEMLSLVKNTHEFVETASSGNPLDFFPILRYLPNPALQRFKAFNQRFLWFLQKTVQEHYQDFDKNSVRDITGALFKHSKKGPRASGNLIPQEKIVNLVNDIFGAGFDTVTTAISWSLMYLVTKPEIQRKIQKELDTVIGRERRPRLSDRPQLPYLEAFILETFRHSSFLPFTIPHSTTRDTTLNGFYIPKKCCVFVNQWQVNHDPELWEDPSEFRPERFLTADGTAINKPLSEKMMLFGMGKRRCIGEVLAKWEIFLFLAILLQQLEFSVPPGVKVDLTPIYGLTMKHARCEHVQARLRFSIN

Cytochrome P450 2C9 = Cytochrome P450 2C9 (Homo sapiens, UniProt P11712)
Chain of Cytochrome P450 2C9 (P11712 whole entry): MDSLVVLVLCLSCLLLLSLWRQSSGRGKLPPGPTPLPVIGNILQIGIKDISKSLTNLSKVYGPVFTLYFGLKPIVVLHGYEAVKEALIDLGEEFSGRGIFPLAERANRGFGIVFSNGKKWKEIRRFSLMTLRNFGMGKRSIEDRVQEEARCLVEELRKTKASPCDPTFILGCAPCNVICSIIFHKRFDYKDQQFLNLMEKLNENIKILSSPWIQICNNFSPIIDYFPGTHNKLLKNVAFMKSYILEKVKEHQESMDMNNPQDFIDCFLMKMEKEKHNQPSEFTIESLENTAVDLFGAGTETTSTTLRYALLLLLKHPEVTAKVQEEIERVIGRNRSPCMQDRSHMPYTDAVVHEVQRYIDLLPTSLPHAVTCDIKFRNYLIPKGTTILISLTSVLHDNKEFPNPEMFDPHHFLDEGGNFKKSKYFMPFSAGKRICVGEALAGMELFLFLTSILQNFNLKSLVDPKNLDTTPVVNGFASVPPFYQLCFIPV

Cytochrome P450 3A4 = Cytochrome P450 3A4 (Homo sapiens, UniProt P08684);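 note: CYP3A4 tested as one member of a cytochrome P450 panel screen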
Chain of Cytochrome P450 3A4 (P08684 whole entry): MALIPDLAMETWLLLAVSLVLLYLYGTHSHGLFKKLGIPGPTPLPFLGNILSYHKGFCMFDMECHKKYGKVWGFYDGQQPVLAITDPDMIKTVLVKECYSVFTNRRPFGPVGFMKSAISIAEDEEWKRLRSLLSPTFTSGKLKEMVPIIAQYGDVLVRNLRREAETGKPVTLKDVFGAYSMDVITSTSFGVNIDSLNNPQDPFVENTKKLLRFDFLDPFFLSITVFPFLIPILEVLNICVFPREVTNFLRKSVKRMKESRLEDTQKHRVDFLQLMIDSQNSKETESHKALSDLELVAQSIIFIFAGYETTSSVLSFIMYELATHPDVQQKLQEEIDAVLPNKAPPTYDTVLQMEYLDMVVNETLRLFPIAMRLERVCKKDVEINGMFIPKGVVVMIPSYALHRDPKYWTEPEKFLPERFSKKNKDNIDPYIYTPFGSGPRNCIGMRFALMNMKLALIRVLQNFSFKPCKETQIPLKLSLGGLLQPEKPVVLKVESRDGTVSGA

[1] = Luminescence Cell-Based Dose Confirmation HTS to Identify Activators of 5'UTR Stem-Loop Driven Alpha-Synuclein mRNA Translation in H4 Neuroglioblastoma Cells. [Related pubchem assays: 1829 (Project Summary), 1814 (Primary HTS)]; format: functional
[2] = Luminescence Cell-Based Dose Response HTS to Identify Activators of Luciferase Translation or Activity in H4 […] Cells. [Related pubchem assays: 1829 (Project Summary), 1814 (Primary HTS)]; format: functional
H4 = assay: Luminescence Cell-Based Dose Response HTS to Identify Activators of 5'UTR Stem-Loop Driven Prion Protein mRNA Translation in H4 Neuroglioblastoma Cells. [Related pubchem assays: 1829 (Project Summary), 1814 (Primary HTS)]; format: functional; settings: Homo sapiens
Large T antigen = Large T antigen (Simian virus 40, UniProt P03070); format: functional, Betapolyomavirus macacae;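 note: Confirmatory-stage PubChem screen for compounds that inhibit SV40 T antigen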
Chain of Large T antigen (P03070 whole entry): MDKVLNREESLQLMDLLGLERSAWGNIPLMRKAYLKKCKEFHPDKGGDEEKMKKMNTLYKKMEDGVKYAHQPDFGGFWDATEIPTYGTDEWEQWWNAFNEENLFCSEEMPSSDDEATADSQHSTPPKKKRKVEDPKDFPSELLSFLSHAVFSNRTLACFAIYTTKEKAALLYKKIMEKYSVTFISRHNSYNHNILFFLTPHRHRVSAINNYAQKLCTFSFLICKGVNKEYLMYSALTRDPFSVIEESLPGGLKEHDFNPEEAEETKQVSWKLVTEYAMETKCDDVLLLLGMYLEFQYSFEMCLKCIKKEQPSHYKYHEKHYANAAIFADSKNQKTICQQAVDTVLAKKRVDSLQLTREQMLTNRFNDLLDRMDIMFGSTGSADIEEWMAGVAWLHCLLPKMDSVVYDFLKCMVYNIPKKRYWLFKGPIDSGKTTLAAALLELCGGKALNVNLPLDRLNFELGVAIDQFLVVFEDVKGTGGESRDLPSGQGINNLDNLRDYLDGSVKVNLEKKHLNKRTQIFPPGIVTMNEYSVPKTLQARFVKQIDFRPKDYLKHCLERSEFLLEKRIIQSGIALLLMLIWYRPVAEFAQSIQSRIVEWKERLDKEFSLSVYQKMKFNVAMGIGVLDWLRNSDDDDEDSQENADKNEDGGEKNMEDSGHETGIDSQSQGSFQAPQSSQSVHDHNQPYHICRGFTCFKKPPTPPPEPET

[3] = molecular target: T2, Ubiquitin-conjugating enzyme E2 N (Homo sapiens, UniProt P61088); format: functional;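 note: Dose-response confirmation in a TR-FRET assay detecting UBC13-driven polyubiquitin chain formation, inhibition measured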
T2 sequence (P61088 whole entry): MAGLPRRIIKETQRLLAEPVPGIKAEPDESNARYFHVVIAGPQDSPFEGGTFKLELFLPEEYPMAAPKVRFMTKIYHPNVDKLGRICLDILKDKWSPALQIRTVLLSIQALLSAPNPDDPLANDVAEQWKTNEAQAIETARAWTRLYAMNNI

[4] = inhibitors of intracellular T. cruzi replication, confirmation, NIH3T3 host cells, beta-gal luminescence (AID 2044); format: functional, cell-based;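 note: intracellular parasites grown in NIH/3T3 mouse fibroblasts as host cells; luminescent beta-galactosidase reporter signal from transgenic T. cruzi replicating inside host cells; inhibitors lower the luminescence signal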
[5] = growth suppression of PTEN-null colon cells, dose response, cell-based, HCT116 PTEN knockout (AID 1047); format: functional;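 note: HCT116 colon tumor cells with PTEN knocked out; cells exposed to compound for 60 hours before readout; potency for loss of cell viability measured by luminescence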
[6] = cytotoxicity toward NIH3T3 fibroblasts, dose response, counter-screen, cell-based, ATP luminescence, mouse fibroblasts (AID 2010); format: functional;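 note: cells exposed to compound for about 90 hours before reading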
[7] = growth suppression of beta-catenin-knockout colon cells, dose response, cell-based, HCT116, human colon tumor (AID 1045); format: functional;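 note: HCT116 colon tumor cells with beta catenin knocked out; cells exposed to compound for 60 hours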
[8] = Luminescence Cell-Based Dose Retest to Confirm Inhibitors of Cancer Stem Cells. [Related pubchem assays (depositor defined):AID2717, AID2721]; format: functional; settings: Homo sapiens
[9] = molecular target: Luciferin 4-monooxygenase (Photinus pyralis, UniProt P08659); assay: firefly luciferase enzyme inhibitors, dose response, biochemical, luminescence (AID 1891)
Chain of Luciferin 4-monooxygenase (P08659 whole entry): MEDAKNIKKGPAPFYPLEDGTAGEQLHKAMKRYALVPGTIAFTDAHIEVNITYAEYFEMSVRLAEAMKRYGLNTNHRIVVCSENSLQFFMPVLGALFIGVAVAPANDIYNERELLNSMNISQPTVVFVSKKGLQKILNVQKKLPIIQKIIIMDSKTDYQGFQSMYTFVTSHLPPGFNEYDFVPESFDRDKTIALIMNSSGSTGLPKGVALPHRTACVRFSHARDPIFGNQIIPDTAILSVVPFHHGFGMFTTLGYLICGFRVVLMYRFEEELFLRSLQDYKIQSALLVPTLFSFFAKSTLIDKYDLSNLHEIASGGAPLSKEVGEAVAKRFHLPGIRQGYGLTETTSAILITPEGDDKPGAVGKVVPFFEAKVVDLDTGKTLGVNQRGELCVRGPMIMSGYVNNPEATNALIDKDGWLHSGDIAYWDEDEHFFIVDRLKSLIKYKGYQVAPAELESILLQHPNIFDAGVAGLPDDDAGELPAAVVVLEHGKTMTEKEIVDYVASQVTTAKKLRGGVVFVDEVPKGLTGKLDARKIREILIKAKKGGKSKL

[10] = Luminescence Cell-Based Dose Confirmation HTS to Identify Inhibitors of Platelet Dense Granule Release. [Related pubchem assays: 1663 (Primary HTS), 1678 (Summary of Project)]; format: functional

Chain of Cytochrome P450 2C19 (P33261 whole entry): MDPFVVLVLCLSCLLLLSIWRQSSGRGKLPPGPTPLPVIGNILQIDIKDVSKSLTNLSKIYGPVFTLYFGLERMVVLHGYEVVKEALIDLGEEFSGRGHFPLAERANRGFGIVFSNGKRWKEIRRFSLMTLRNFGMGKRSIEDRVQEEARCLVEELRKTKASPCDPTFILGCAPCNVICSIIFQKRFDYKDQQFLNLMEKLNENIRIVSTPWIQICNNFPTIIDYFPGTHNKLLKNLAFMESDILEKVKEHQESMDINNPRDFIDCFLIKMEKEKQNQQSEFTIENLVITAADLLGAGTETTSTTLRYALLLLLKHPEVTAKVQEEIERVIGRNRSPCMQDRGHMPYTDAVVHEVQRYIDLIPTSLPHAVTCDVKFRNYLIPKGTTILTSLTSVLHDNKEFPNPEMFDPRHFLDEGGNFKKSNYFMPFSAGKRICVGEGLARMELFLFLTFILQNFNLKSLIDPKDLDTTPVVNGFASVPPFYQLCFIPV

Cc1ccc(C(=O)NC(=S)Nc2cc(C(F)(F)F)ccc2Cl)cc1
AC50 (Cytochrome P450 2C19): inconclusive | AC50 (Cytochrome P450 1A2): 0.562 µM (inconclusive) | AC50 (Cytochrome P450 2C9): inconclusive

CCC12CN3CC(CC)(CN(C1)C3c1cccnc1)C2=O (centres undefined)
AC50 (Cytochrome P450 1A2): 28.2 µM (inconclusive) | AC50 (Cytochrome P450 3A4): 4.47 µM (inconclusive) | AC50 (Cytochrome P450 2C9): inconclusive

CCC(=O)N1CCc2nc(-c3ccccc3)sc2C1
EC50 [1]: 7.33 µM (active) | EC50 [2]: 20.4 µM (active) | EC50 (H4): 46.3 µM (active)

CN(C)c1nn(C(=O)Nc2ccc(Cl)cc2Cl)cc1-c1ccccc1
IC50 (Large T antigen): 38 µM (active)

COc1cc2[nH]c3c(N4CCN(c5ccc(Cl)cc5)CC4)ncnc3c2cc1OC
IC50 [3]: > 20 µM (inactive)

Cc1ccc(-c2nnc(CCC(=O)NCC3C4CC5CC(C4)CC3C5)o2)s1 (centres undefined)
EC50 [1]: 11.6 µM (active) | EC50 [2]: 17.6 µM (active) | EC50 (H4): 20.2 µM (active)

Cc1ccccc1N1C(=O)NC(=O)/C(=C/Nc2ccc(N(C)C)cc2)C1=O
IC50 (Large T antigen): 6.73 µM (active) | AC50 (Cytochrome P450 2C19; read-out: AC50): 22.4 µM (inconclusive) | AC50 (Cytochrome P450 3A4): 0.398 µM (inconclusive)

COc1ccc(C(=O)Nn2cnc3ccccc3c2=O)c(OC)c1
AC50 (Cytochrome P450 2C19; read-out: AC50): 17.8 µM (inconclusive) | AC50 (Cytochrome P450 1A2): 11.2 µM (inconclusive) | AC50 (Cytochrome P450 2C9): inconclusive

CCn1c(=O)c(C(=O)NCCN2CCCCC2)c(O)c2ccccc21
IC50 [3]: > 20 µM (inactive)

Cc1nc(NC(=O)c2ccccc2)sc1-c1csc(Nc2ccc(Cl)cc2)n1
AC50 (Cytochrome P450 1A2): 7.08 µM (inconclusive) | AC50 (Cytochrome P450 2C9): inconclusive

Cc1ccc2nc(N3CCN(C(=O)c4ccco4)CC3)sc2c1
EC50 [1]: 5.76 µM (active) | EC50 [2]: > 120 µM (not active) | EC50 (H4): 34.9 µM (active)

COc1ccccc1OCCN1C(=O)S/C(=C\c2ccco2)C1=O
AC50 (Cytochrome P450 2C9): inconclusive

N#C/C(=C/c1cn(-c2ccccc2)nc1-c1cccc(OCc2ccccc2)c1)C(=O)NCCCn1ccnc1
EC50 [4]: 1.44 µM (active) | EC50 [5]: 23.8 µM (active) | EC50 [6]: > 30 µM (not active) | EC50 [7]: 22 µM (active) | AC50 [8]: 5.32 µM (active) | IC50 [3]: > 20 µM (inactive)

CCOC(=O)C(OC(=O)c1sc(=S)n(C)c1C)C(C)=O (centres undefined)
EC50 [9]: > 112 µM (not active) | EC50 [10]: > 112 µM (not active)

COc1ncc2nc(-c3cn(C)c4ccccc34)c(=O)n(-c3ccccc3)c2n1
AC50 (Cytochrome P450 1A2): 5.01 µM (inconclusive) | AC50 (Cytochrome P450 3A4): 3.16 µM (inconclusive) | AC50 (Cytochrome P450 2C9): inconclusive

CCN(CC)S(=O)(=O)c1ccc(C(=O)NNC(=O)C2CCN(S(=O)(=O)c3ccc(Cl)cc3)CC2)cc1
IC50 [3]: > 20 µM (inactive)
